Tests used:
[1] = tested on: IL-13 induced STAT6 phosphorylation in BEAS-2B human lung epithelial cells; experiment: Cellular JAKI potency assay (AlphaScreen), BEAS-2B; assay type: cell-based; details: BEAS-2B cells
Protocol: Assay 2: Cellular JAKI Potency Assay
The AlphaScreen JAKI cellular potency assay was carried out by measuring interleukin-13 (IL-13, R&D Systems) induced STAT6 phosphorylation in BEAS-2B human lung epithelial cells (ATCC). The anti-STAT6 antibody (Cell Signaling Technologies) was conjugated to AlphaScreen acceptor beads (Perkin Elmer), while the anti-pSTAT6 (pTyr641) antibody (Cell Signaling Technologies) was biotinylated using EZ-Link Sulfo-NHS-Biotin (Thermo Scientific).
BEAS-2B cells were grown at 37° C. in a 5% CO2 humidified incubator in 50% DMEM/50% F-12 medium (Life Technologies) supplemented with 10% FBS (Hyclone), 100 U/mL penicillin, 100 μg/mL streptomycin (Life Technologies), and 2 mM GlutaMAX (Life Technologies). On day 1 of the assay, cells were seeded at a 7,500 cells/well density in white poly-D-lysine-coated 384-well plates (Corning) with 25 μL medium, and were allowed to adhere overnight in the incubator. On day 2 of the assay, the medium was removed and replaced with 12 μL of assay buffer (Hank's Balanced Salt Solution/HBSS, 25 mM HEPES, and 1 mg/ml bovine serum albumin/BSA) containing dose-responses of test compounds. Compounds were serially diluted in DMSO and then diluted another 1000-fold in media to bring the final DMSO concentration to 0.1%. Cells were incubated with test compounds at 37° C. for 1 h, and followed by the addition of 12 μl of pre-warmed IL-13 (80 ng/mL in assay buffer) for stimulation. After incubating at 37° C. for 30 min, the assay buffer (containing compound and IL-13) was removed, and 10 μL of cell lysis buffer (25 mM HEPES, 0.1% SDS, 1% NP-40, 5 mM MgCl2, 1.3 mM EDTA, 1 mM EGTA, and supplement with Complete Ultra mini protease inhibitors and PhosSTOP from Roche Diagnostics). The plates were shaken at ambient temperature for 30 min before the addition of detection reagents. A mixture of biotin-anti-pSTAT6 and anti-STAT6 conjugated acceptor beads was added first and incubated at ambient temperature for 2 h, followed by the addition of streptavidin conjugated donor beads (Perkin Elmer). After a minimum of 2 h incubation, the assay plates were read on the EnVision plate reader. AlphaScreen luminescence signals were recorded and utilized to calculate the percent inhibition values based on DMSO and background controls.
For dose-response analysis, percent inhibition data were plotted vs. compound concentrations, and IC50 values were determined from a 4-parameter robust fit model with the Prism software. Results may also be expressed as the negative logarithm of the IC50 value, pIC50.
Test compounds having a lower IC50 value or higher pIC50 value in this assay show greater inhibition of IL-13 induced STAT6 phosphorylation.

[2] = tested on: IL-13 induced pSTAT6 induction in lung tissue; experiment: Murine model of IL-13 induced pSTAT6 induction in lung tissue; assay type: in vivo; details: mouse lung, 1 mg/mL 50 μL oral aspiration, IL-13 challenge 4 h after dose, lungs at 5 hours
Text: Assay 4: Murine (Mouse) Model of IL-13 Induced pSTAT6 Induction in Lung Tissue
Il-13 is an important cytokine underlying the pathophysiology of asthma (Kudlacz et al. Eur. J. Pharmacol, 2008, 582,154-161). IL-13 binds to cell surface receptors activating members of the Janus family of kinases (JAK) which then phosphorylate STAT6 and subsequently activates further transcription pathways. In the described model, a dose of IL-13 was delivered locally into the lungs of mice to induce the phosphorylation of STAT6 (pSTAT6) which is then measured as the endpoint.
Adult balb/c mice from Harlan were used in the assay. On the day of study, animals were lightly anesthetized with isoflurane and administered either vehicle or test compound (1 mg/mL, 50 μL total volume over several breaths) via oral aspiration. Animals were placed in lateral recumbency post dose and monitored for full recovery from anesthesia before being returned to their home cage. Four hours later, animals were once again briefly anesthetized and challenged with either vehicle or IL-13 (0.03 μg total dose delivered, 50 μL total volume) via oral aspiration before being monitored for recovery from anesthesia and returned to their home cage. One hour after vehicle or IL-13 administration, lungs were collected for both pSTAT6 detection using an anti-pSTAT6 ELISA (rabbit mAb capture/coating antibody; mouse mAb detection/report antibody: anti-pSTAT6-pY641; secondary antibody: anti-mouse IgG-HRP) and analyzed for total drug concentration as described above in Assay 3.
Selected compounds of the invention were tested in the assay. Activity in the model is evidenced by a decrease in the level of pSTAT6 present in the lungs of treated animals at 5 hours compared to the vehicle treated, IL-13 challenged control animals. The difference between the control animals which were vehicle-treated, IL-13 challenged and the control animals which were vehicle-treated, vehicle challenged dictated the 0% and 100% inhibitory effect, respectively, in any given experiment.

JAK1 = JAK1 (Homo sapiens (Human), UniProt P23458); experiment: Biochemical JAK kinase assay (LanthaScreen), JAK1; details: converted from pIC50 with Cheng-Prusoff equation
Protocol: (§1) Assay 1: Biochemical JAK Kinase Assays
(§2) A panel of four LanthaScreen JAK biochemical assays (JAK1, 2, 3 and Tyk2) were carried in a common kinase reaction buffer (50 mM HEPES, pH 7.5, 0.01% Brij-35, 10 mM MgCl2, and 1 mM EGTA). Recombinant GST-tagged JAK enzymes and a GFP-tagged STAT1 peptide substrate were obtained from Life Technologies.
(§3) Serially diluted compounds were pre-incubated with each of the four JAK enzymes and the substrate in white 384-well microplates (Corning) at ambient temperature for 1 h. ATP was subsequently added to initiate the kinase reactions in 10 μL total volume, with 1% DMSO. […] The plates were allowed to incubate at ambient temperature for 1 h before being read on the EnVision reader (Perkin Elmer).
(§4) For dose-response analysis, percent inhibition data were plotted vs. compound concentrations, and IC50 values were determined from a 4-parameter robust fit model with the Prism software (GraphPad Software). Results were expressed as pIC50 (negative logarithm of IC50) and subsequently converted to pKi (negative logarithm of dissociation constant, Ki) using the Cheng-Prusoff equation.

JAK3 = JAK3 (Homo sapiens (Human), UniProt P52333); experiment: Biochemical JAK kinase assay (LanthaScreen), JAK3; details: converted from pIC50 with Cheng-Prusoff equation
Protocol: as §1, §2, §3, §4

JAK2 = JAK2 (Homo sapiens (Human), UniProt O60674); experiment: Biochemical JAK kinase assay (LanthaScreen), JAK2; details: converted from pIC50 with Cheng-Prusoff equation
Protocol: as §1, §2, §3, §4

Sequence of JAK1 (P23458 whole entry): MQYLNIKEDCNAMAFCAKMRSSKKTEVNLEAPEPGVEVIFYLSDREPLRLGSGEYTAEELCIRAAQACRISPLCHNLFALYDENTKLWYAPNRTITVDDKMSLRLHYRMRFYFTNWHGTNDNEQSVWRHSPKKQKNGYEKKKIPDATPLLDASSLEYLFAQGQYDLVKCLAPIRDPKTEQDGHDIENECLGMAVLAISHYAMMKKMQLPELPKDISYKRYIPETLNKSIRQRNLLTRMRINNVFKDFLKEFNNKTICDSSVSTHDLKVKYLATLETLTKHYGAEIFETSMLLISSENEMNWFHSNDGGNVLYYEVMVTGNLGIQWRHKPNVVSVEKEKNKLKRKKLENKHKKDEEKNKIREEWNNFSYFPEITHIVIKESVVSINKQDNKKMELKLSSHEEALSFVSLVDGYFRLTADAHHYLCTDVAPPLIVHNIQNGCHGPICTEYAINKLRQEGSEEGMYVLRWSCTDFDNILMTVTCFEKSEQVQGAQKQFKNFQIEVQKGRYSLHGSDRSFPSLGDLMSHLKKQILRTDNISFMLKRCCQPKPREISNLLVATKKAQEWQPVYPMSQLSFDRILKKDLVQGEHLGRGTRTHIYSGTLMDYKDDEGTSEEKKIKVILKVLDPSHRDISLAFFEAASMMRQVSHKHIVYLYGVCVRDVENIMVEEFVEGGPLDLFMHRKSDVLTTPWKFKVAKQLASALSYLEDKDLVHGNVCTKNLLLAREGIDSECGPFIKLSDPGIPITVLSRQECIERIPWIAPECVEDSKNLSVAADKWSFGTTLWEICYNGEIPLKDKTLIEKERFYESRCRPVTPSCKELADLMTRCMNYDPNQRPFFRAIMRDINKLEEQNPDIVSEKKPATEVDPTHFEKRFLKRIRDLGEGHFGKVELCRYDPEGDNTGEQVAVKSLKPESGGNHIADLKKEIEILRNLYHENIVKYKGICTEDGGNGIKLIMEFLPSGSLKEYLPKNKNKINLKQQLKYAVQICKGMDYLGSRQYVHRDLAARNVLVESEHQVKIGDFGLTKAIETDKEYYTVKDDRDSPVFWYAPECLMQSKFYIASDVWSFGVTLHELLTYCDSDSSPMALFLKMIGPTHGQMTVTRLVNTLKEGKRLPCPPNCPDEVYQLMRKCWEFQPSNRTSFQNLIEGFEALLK
Sequence of JAK3 (P52333 whole entry): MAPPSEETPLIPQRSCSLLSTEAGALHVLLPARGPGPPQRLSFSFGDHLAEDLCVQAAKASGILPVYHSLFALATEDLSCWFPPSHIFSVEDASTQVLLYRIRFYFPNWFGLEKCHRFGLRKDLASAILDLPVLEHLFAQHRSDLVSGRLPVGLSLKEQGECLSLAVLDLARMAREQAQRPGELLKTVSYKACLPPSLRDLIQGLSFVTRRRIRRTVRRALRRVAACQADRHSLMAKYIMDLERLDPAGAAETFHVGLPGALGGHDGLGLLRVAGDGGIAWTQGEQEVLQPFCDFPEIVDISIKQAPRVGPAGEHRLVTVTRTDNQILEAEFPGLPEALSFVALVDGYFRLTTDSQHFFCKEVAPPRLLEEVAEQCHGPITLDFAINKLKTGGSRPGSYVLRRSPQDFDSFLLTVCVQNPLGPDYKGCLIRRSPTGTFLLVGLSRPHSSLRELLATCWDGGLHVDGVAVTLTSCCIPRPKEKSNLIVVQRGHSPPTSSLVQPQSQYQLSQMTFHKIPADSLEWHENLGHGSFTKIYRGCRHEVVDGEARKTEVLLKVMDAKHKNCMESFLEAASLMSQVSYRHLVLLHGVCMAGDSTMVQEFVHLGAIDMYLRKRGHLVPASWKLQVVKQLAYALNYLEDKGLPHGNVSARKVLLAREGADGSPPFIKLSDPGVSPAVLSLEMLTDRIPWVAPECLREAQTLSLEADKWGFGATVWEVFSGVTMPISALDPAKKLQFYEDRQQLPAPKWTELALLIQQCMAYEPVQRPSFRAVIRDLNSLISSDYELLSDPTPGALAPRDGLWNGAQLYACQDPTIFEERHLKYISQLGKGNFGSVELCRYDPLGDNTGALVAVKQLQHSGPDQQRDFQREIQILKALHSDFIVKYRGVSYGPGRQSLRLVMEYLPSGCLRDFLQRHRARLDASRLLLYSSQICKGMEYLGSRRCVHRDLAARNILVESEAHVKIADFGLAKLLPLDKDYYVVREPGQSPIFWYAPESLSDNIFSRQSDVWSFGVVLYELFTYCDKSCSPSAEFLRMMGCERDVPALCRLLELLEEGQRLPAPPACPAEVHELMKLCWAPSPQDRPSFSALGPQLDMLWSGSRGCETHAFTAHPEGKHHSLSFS
Sequence of JAK2 (O60674 whole entry): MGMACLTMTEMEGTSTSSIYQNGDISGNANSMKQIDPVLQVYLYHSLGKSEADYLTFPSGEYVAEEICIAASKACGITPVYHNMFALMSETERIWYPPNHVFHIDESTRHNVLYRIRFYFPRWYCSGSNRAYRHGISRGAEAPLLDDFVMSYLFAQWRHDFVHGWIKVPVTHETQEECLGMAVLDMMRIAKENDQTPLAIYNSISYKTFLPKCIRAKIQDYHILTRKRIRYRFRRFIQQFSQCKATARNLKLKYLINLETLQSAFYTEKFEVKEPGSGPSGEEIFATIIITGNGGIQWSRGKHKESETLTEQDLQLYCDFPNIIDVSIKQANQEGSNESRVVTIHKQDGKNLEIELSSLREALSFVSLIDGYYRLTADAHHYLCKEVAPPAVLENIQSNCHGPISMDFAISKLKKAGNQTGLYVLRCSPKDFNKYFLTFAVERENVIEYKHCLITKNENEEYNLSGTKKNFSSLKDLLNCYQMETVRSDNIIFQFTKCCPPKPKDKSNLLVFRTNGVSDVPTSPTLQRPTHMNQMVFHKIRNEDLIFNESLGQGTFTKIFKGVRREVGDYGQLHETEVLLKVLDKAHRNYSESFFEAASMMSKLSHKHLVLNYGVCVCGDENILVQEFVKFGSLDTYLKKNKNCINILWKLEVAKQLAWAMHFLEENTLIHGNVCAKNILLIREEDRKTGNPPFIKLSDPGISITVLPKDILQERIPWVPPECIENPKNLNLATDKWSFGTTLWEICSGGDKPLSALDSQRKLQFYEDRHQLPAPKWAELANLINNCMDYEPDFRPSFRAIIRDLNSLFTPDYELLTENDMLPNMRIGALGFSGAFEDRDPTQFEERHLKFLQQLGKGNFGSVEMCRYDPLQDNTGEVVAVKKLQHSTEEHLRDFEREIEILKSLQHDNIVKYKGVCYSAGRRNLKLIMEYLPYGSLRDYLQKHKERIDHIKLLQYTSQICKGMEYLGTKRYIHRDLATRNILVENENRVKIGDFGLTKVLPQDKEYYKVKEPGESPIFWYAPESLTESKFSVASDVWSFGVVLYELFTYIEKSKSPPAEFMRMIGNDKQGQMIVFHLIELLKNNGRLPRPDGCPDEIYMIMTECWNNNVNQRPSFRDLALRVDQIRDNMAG

## CCc1cc(O)c(F)cc1-c1ccc2c(-c3nc4c([nH]3)CN(CC)C(C(=O)N3CC(N5CCCCC5)C3)C4)n[nH]c2c1 (racemic) [Example 8-4]
[1]
  IC50: 10 nM

## CCCN1Cc2[nH]c(-c3n[nH]c4cc(-c5cc(F)c(O)cc5CC)ccc34)nc2C[C@H]1C(=O)N1CC(C)(N(C)C)C1 [Example 8, (S)-(3-(dimethylamino)-3-methylazetidin-1-yl)(2-(6-(2-ethyl-5-fluoro-4-hydroxyphenyl)-1H-indazol-3-yl)-5-propyl-4,5,6,7-tetrahydro-3H-imidazo[4,5-c]pyridin-6-yl)methanone]
[2]
  pSTAT6 inhibition Assay 4: B (B represents between 40% and 60% inhibition)
[1]; Homo sapiens
  IC50: 8.5 nM

## CCc1cc(O)c(F)cc1-c1ccc2c(-c3nc4c([nH]3)CN(C)[C@H](C(=O)N3CC(N5CCCCC5)C3)C4)n[nH]c2c1 [Example 8-1]
[1]
  IC50: 6.3 nM
JAK1
  Ki: 0.06 nM

## CCc1cc(O)c(F)cc1-c1ccc2c(-c3nc4c([nH]3)CN(C)[C@H](C(=O)N3CC(N(C)C)C3)C4)n[nH]c2c1 [Example 8-2]
[1]
  IC50: 12.6 nM
JAK1
  Ki: 0.06 nM

## CCCN1Cc2[nH]c(-c3n[nH]c4cc(-c5cc(F)c(O)cc5CC)ccc34)nc2C[C@H]1C(=O)N1CC(N2CCCCC2)C1 [Example 8-5]
[1]
  IC50: 25.1 nM
JAK3
  Ki: 0.2 nM

## CCc1cc(O)c(F)cc1-c1ccc2c(-c3nc4c([nH]3)CN(C(C)C)[C@H](C(=O)N3CC(N5CCCCC5)C3)C4)n[nH]c2c1 [Example 8-6]
[1]
  IC50: 15.8 nM
JAK1
  Ki: 0.06 nM

## CCc1cc(O)c(F)cc1-c1ccc2c(-c3nc4c([nH]3)CN(C(C)C)[C@H](C(=O)N3CC(N(C)C)C3)C4)n[nH]c2c1 [Example 8-7]
[2]
  pSTAT6 inhibition Assay 4: B (B represents between 40% and 60% inhibition)
[1]
  IC50: 3.1 nM
JAK3
  Ki: 0.2 nM
JAK1
  Ki: 0.06 nM

## CCc1cc(O)c(F)cc1-c1ccc2c(-c3nc4c([nH]3)CN(CC)C(C(=O)N3CC(N(C)C)C3)C4)n[nH]c2c1 (stereo not drawn) [Example 8-8]
[1]
  IC50: 5 nM
JAK3
  Ki: 0.28 nM

## CCc1cc(O)c(F)cc1-c1ccc2c(-c3nc4c([nH]3)CN(C)C(C(=O)N3CC(C)(N(C)C)C3)C4)n[nH]c2c1 (stereo not drawn) [Example 8-9]
[1]; Homo sapiens
  IC50: 7.1 nM
JAK3
  Ki: 0.16 nM
JAK1
  Ki: 0.05 nM

## CCc1cc(O)c(F)cc1-c1ccc2c(-c3nc4c([nH]3)CN(CC)C(C(=O)N3CC(C)(N(C)C)C3)C4)n[nH]c2c1 (stereo not drawn) [Example 8-10]
[1]; Homo sapiens
  IC50: 3.2 nM

## CCCN1Cc2[nH]c(-c3n[nH]c4cc(-c5cc(F)c(O)cc5CC)ccc34)nc2CC1C(=O)N1CC(C)(N(C)C)C1 (stereo not drawn) [Example 8-11]
[1]; Homo sapiens
  IC50: 6.3 nM

## CCc1cc(O)c(F)cc1-c1ccc2c(-c3nc4c([nH]3)CN(C(C)C)C(C(=O)N3CC(C)(N(C)C)C3)C4)n[nH]c2c1 (stereo not drawn) [Example 8-12]
[1]; Homo sapiens
  IC50: 4 nM
JAK1
  Ki: 0.06 nM

## CCc1cc(O)c(F)cc1-c1ccc2c(-c3nc4c([nH]3)CN(CC)[C@H](C(=O)N3CC(N5CCCCC5)C3)C4)n[nH]c2c1 [Example 8-14, (S)-(5-ethyl-2-(6-(2-ethyl-5-fluoro-4-hydroxyphenyl)-1H-indazol-3-yl)-4,5,6,7-tetrahydro-3H-imidazo[4,5-c]pyridin-6-yl)(3-(piperidin-1-yl)azetidin-1-yl)methanone]
[1]; Homo sapiens
  IC50: 12.6 nM

## CCc1cc(O)c(F)cc1-c1ccc2c(-c3nc4c([nH]3)CN(CC)[C@@H](C(=O)N3CC(N5CCCCC5)C3)C4)n[nH]c2c1 [Example 8-15]
[2]
  pSTAT6 inhibition Assay 4: C (C represents between 25% and 40% inhibition)
JAK2
  Ki: 0.03 nM
[1]
  IC50: 5.6 nM

## CCc1cc(O)c(F)cc1-c1ccc2c(-c3nc4c([nH]3)CN(C(C)C)C(C(=O)N3CC(C)(N(C)C)C3)C4)n[nH]c2c1 (stereo not drawn) [Example 8-16]
[2]
  pSTAT6 inhibition Assay 4: C (C represents between 25% and 40% inhibition)

## CCc1cc(O)c(F)cc1-c1ccc2c(-c3nc4c([nH]3)CN(C(C)C)[C@H](C(=O)N3CC(C)(N(C)C)C3)C4)n[nH]c2c1 [Example 8-16]
[1]; Homo sapiens
  IC50: 5 nM

## CCc1cc(O)c(F)cc1-c1ccc2c(-c3nc4c([nH]3)CN(C(C)C)[C@@H](C(=O)N3CC(N(C)C)C3)C4)n[nH]c2c1 [Example 8-17]
[1]
  IC50: 8 nM
JAK3
  Ki: 0.13 nM

## CCc1cc(O)c(F)cc1-c1ccc2c(-c3nc4c([nH]3)CN(C(C)C)[C@@H](C(=O)N3CC(C)(N(C)C)C3)C4)n[nH]c2c1 [Example 8-18]
[1]; Homo sapiens
  IC50: 4 nM

## CCCN1Cc2[nH]c(-c3n[nH]c4cc(-c5cc(F)c(O)cc5CC)ccc34)nc2C[C@@H]1C(=O)N1CC(C)(N(C)C)C1 [Example 8-19]
[1]; Homo sapiens
  IC50: 8 nM

## CCc1cc(O)c(F)cc1-c1ccc2c(-c3nc4c([nH]3)CN(CC)[C@@H](C(=O)N3CC(N(C)C)C3)C4)n[nH]c2c1 [Example 8-20]
[1]
  IC50: 5 nM
JAK3
  Ki: 0.2 nM

## CCc1cc(O)c(F)cc1-c1ccc2c(-c3nc4c([nH]3)CN(CC)[C@@H](C(=O)N3CC(C)(N(C)C)C3)C4)n[nH]c2c1 [Example 8-21]
[1]; Homo sapiens
  IC50: 4 nM

## CCc1cc(O)c(F)cc1-c1ccc2c(-c3nc4c([nH]3)CN(CC)[C@H](C(=O)N3CC(N(C)C)C3)C4)n[nH]c2c1 [Example 8-22, (S)-(3-(dimethylamino)azetidin-1-yl)(5-ethyl-2-(6-(2-ethyl-5-fluoro-4-hydroxyphenyl)-1H-indazol-3-yl)-4,5,6,7-tetrahydro-3H-imidazo[4,5-c]pyridin-6-yl)methanone]
[2]
  pSTAT6 inhibition Assay 4: B (B represents between 40% and 60% inhibition)
[1]; Homo sapiens
  IC50: 5.25 nM
JAK3
  Ki: 0.32 nM

## CCc1cc(O)c(F)cc1-c1ccc2c(-c3nc4c([nH]3)CN(CC)[C@H](C(=O)N3CC(C)(N(C)C)C3)C4)n[nH]c2c1 [Example 8-23, (S)-(3-(dimethylamino)-3-methylazetidin-1-yl)(5-ethyl-2-(6-(2-ethyl-5-fluoro-4-hydroxyphenyl)-1H-indazol-3-yl)-4,5,6,7-tetrahydro-3H-imidazo[4,5-c]pyridin-6-yl)methanone]
[2]
  pSTAT6 inhibition Assay 4: B (B represents between 40% and 60% inhibition)
[1]; Homo sapiens
  IC50: 7.7 nM

— patent US10196393B2, “JAK inhibitors containing a 4-membered heterocyclic amide” (THERAVANCE BIOPHARMA R&D IP, LLC, priority 2017, dated 2019)
